Data published in ChEMBL document CHEMBL1201862, “PubChem BioAssay data set” (2004).
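Test compounds were applied to cells in 96-well plates for 48 hours at 5 doses. Abbreviation: GI50, concentration required for 50% inhibition of growth.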 The source made the active and inactive calls. No stated cut-off is given here; in the data, active = GI50 up to about 1.1 µM and inactive = higher.

Experiments:
Experiment in all cases: NCI-60 cell line screen, 48 h
UACC-62 = test system: UACC-62
CAKI-1 = test system: CAKI-1
EKVX = test system: EKVX
Malme-3M = test system: Malme-3M
NCI-H522 = test system: NCI-H522
U-251 = test system: U-251
OVCAR-4 = test system: OVCAR-4
HOP-62 = test system: HOP-62
NCI-H460 = test system: NCI-H460
M14 = test system: M14
RXF 393 = test system: RXF 393
TK-10 = test system: TK-10
786-0 = test system: 786-0
HCC 2998 = test system: HCC 2998
UACC-257 = test system: UACC-257
HCT-116 = test system: HCT-116
OVCAR-5 = test system: OVCAR-5

Measured: GI50

O=C(Nc1cc(Cl)ccc1Cl)C(=O)C(c1cnc2ccccc2n1)[N+](=O)[O-] (centres undefined)
inactive: UACC-62 > 100 µM | CAKI-1 > 100 µM | EKVX > 100 µM | Malme-3M > 100 µM | NCI-H522 85.1 µM | U-251 > 100 µM | OVCAR-4 > 100 µM | HOP-62 > 100 µM | NCI-H460 > 100 µM | M14 > 100 µM | RXF 393 > 100 µM | TK-10 > 100 µM | 786-0 > 100 µM | HCC 2998 > 100 µM | UACC-257 > 100 µM | HCT-116 > 100 µM | OVCAR-5 > 100 µM

O=C1OC(c2ccccc2)=N/C1=C\c1c(O)cc(O)cc1O
inactive: UACC-62 27.9 µM | CAKI-1 > 100 µM | EKVX > 100 µM | Malme-3M > 100 µM | NCI-H522 47.2 µM | U-251 > 100 µM | OVCAR-4 > 100 µM | M14 60.3 µM | RXF 393 > 100 µM | TK-10 > 100 µM | 786-0 > 100 µM | UACC-257 > 100 µM | HCT-116 96.6 µM | OVCAR-5 > 100 µM

O=[N+]([O-])c1ccc2nc(/C(=N\Nc3ccccc3)C(O)c3ccc4c(c3)OCO4)c(O)nc2c1 (centres undefined)
inactive: UACC-62 34 µM | EKVX > 100 µM | Malme-3M > 100 µM | NCI-H522 39 µM | U-251 > 100 µM | OVCAR-4 > 100 µM | HOP-62 > 100 µM | NCI-H460 > 100 µM | M14 > 100 µM | RXF 393 > 100 µM | TK-10 > 100 µM | 786-0 > 100 µM | HCC 2998 75.2 µM | UACC-257 > 100 µM | HCT-116 > 100 µM

Cc1ccc(N2C(=O)/C(=C/c3ccc(N(CCC#N)CCC#N)cc3)N=C2COc2ccc(Cl)cc2Cl)cc1
inactive: UACC-62 > 100 µM | CAKI-1 > 100 µM | EKVX > 100 µM | Malme-3M > 100 µM | NCI-H522 > 100 µM | U-251 > 100 µM | OVCAR-4 > 100 µM | HOP-62 > 100 µM | NCI-H460 > 100 µM | M14 > 100 µM | RXF 393 > 100 µM | TK-10 > 100 µM | 786-0 > 100 µM | UACC-257 > 100 µM | HCT-116 > 100 µM | OVCAR-5 > 100 µM

Oc1cc(Cl)ncn1
inactive: UACC-62 > 100 µM | CAKI-1 > 100 µM | EKVX > 100 µM | Malme-3M > 100 µM | NCI-H522 > 100 µM | U-251 > 100 µM | OVCAR-4 > 100 µM | HOP-62 > 100 µM | NCI-H460 > 100 µM | M14 > 100 µM | TK-10 > 100 µM | 786-0 > 100 µM | HCC 2998 > 100 µM | UACC-257 > 100 µM | HCT-116 > 100 µM | OVCAR-5 > 100 µM

Cc1c(C(=O)CC(=O)C(=O)NC2C3CC4CC(C3)CC2C4)[n+]([O-])c2ccccc2[n+]1[O-] (centres undefined)
inactive: UACC-62 > 100 µM | CAKI-1 > 100 µM | EKVX > 100 µM | Malme-3M > 100 µM | NCI-H522 > 100 µM | U-251 > 100 µM | OVCAR-4 > 100 µM | HOP-62 > 100 µM | NCI-H460 > 100 µM | M14 > 100 µM | RXF 393 > 100 µM | TK-10 > 100 µM | 786-0 > 100 µM | HCC 2998 > 100 µM | UACC-257 > 100 µM | HCT-116 > 100 µM | OVCAR-5 > 100 µM

O=C(O)CCC(NC(=O)c1ccc(Nc2nc3cc(C(F)(F)F)ccc3nc2-c2ccccc2)cc1)C(=O)O (centres undefined)
inactive: UACC-62 > 60.1 µM | EKVX > 100 µM | Malme-3M > 100 µM | NCI-H522 35.6 µM | U-251 67.1 µM | OVCAR-4 31.3 µM | HOP-62 > 74.6 µM | NCI-H460 43.3 µM | RXF 393 26.5 µM | HCC 2998 66.5 µM | UACC-257 > 100 µM | HCT-116 71 µM | OVCAR-5 63.5 µM

CNC(=O)CN1CC(=O)N(C)C(=O)C1
inactive: UACC-62 > 100 µM | CAKI-1 > 100 µM | Malme-3M > 100 µM | NCI-H522 > 100 µM | U-251 > 100 µM | OVCAR-4 > 100 µM | HOP-62 > 100 µM | M14 > 100 µM | RXF 393 > 100 µM | TK-10 > 100 µM | HCC 2998 > 100 µM | OVCAR-5 > 100 µM

CCOC(=O)c1c(C)c2c(n1C)CCc1c[nH]nc1-2
inactive: UACC-62 > 100 µM | CAKI-1 > 100 µM | EKVX 18 µM | Malme-3M > 100 µM | NCI-H522 > 100 µM | U-251 > 100 µM | OVCAR-4 > 100 µM | HOP-62 > 100 µM | NCI-H460 > 100 µM | RXF 393 > 100 µM | HCC 2998 > 100 µM | UACC-257 > 100 µM | HCT-116 > 100 µM | OVCAR-5 99.1 µM

CCOC(=O)c1cnc2sc3ccc4ccccc4c3n2c1=O
inactive: UACC-62 77.6 µM | CAKI-1 29.5 µM | EKVX 74 µM | Malme-3M 63.2 µM | U-251 94 µM | OVCAR-4 38.9 µM | HOP-62 > 100 µM | NCI-H460 > 100 µM | M14 81.1 µM | RXF 393 > 100 µM | TK-10 62.5 µM | 786-0 > 100 µM | HCC 2998 > 100 µM | UACC-257 87.9 µM | HCT-116 41.4 µM | OVCAR-5 > 100 µM

CC(C)CCS(=O)(=O)OCCCCOS(=O)(=O)CCC(C)C
inactive: UACC-62 > 100 µM | EKVX > 100 µM | Malme-3M > 100 µM | NCI-H522 > 100 µM | U-251 > 100 µM | HOP-62 13.9 µM | NCI-H460 > 100 µM | M14 16.1 µM | RXF 393 > 100 µM | TK-10 > 100 µM | 786-0 > 100 µM | HCC 2998 > 100 µM | UACC-257 > 100 µM | HCT-116 > 100 µM

COc1ccc(Oc2ccccc2N)cc1
inactive: UACC-62 19.3 µM | EKVX 93.8 µM | Malme-3M > 100 µM | U-251 12.4 µM | OVCAR-4 57.3 µM | HOP-62 35.2 µM | NCI-H460 30.6 µM | M14 58.7 µM | RXF 393 19.8 µM | HCC 2998 20.8 µM | UACC-257 57.4 µM | HCT-116 17.2 µM | OVCAR-5 48.6 µM

CCC(=C(C#N)C#N)c1cc(OC)c(OC)c(OC)c1
inactive: UACC-62 > 100 µM | CAKI-1 > 100 µM | EKVX > 100 µM | Malme-3M > 100 µM | NCI-H522 > 100 µM | U-251 > 100 µM | OVCAR-4 > 100 µM | HOP-62 > 100 µM | NCI-H460 > 100 µM | M14 > 100 µM | RXF 393 > 100 µM | TK-10 > 100 µM | HCC 2998 > 100 µM | HCT-116 > 100 µM | OVCAR-5 > 100 µM

COc1ccc2c(c1)[n+]([O-])c(-c1ccc(C)cc1)c(N)[n+]2[O-]
inactive: CAKI-1 49.2 µM | EKVX 67.8 µM | Malme-3M 76.2 µM | NCI-H522 16.3 µM | U-251 54.7 µM | OVCAR-4 88.7 µM | HOP-62 > 100 µM | NCI-H460 38.3 µM | M14 52.5 µM | 786-0 70.8 µM | UACC-257 23.6 µM | HCT-116 > 100 µM | OVCAR-5 66.5 µM

N#CC1(C#N)C(c2ccc(C3C(C#N)(C#N)C3(C#N)C#N)cc2)C1(C#N)C#N
inactive: UACC-62 > 100 µM | CAKI-1 > 100 µM | EKVX > 100 µM | Malme-3M > 100 µM | NCI-H522 58.3 µM | U-251 > 100 µM | OVCAR-4 > 100 µM | HOP-62 > 100 µM | NCI-H460 > 100 µM | M14 > 100 µM | RXF 393 > 100 µM | TK-10 > 100 µM | 786-0 > 100 µM | HCC 2998 > 100 µM | UACC-257 > 100 µM | OVCAR-5 > 100 µM

CC1(C)Cc2c(C#N)c(N)c3c(c2CO1)C(=O)OC3=O
inactive: UACC-62 > 100 µM | CAKI-1 > 100 µM | EKVX > 100 µM | Malme-3M > 100 µM | NCI-H522 > 100 µM | U-251 > 100 µM | OVCAR-4 > 100 µM | HOP-62 > 100 µM | NCI-H460 > 100 µM | M14 > 100 µM | RXF 393 > 100 µM | TK-10 > 100 µM | HCC 2998 > 100 µM | HCT-116 > 100 µM | OVCAR-5 > 100 µM

O=C1C=C2SC3C[C@@]24CC1[N+]1=c2c4c(c(O)c4c2=C(C=N4)CC1)N3
inactive: UACC-62 1.78 µM | CAKI-1 2.62 µM | EKVX 2.27 µM | Malme-3M 1.85 µM | NCI-H522 1.58 µM | U-251 1.9 µM | OVCAR-4 1.66 µM | HOP-62 17.8 µM | NCI-H460 3.2 µM | RXF 393 1.99 µM | HCC 2998 2.74 µM | UACC-257 1.7 µM | HCT-116 1.81 µM | OVCAR-5 2.17 µM

Oc1cc(O)cc(/C=C/c2ccc(O)c(O)c2)c1 [PICEATANNOL]
inactive: UACC-62 3.53 µM | CAKI-1 4.35 µM | EKVX 28.2 µM | Malme-3M 26.1 µM | NCI-H522 2.75 µM | U-251 15.4 µM | OVCAR-4 15.5 µM | HOP-62 16.3 µM | NCI-H460 22.2 µM | RXF 393 8.77 µM | HCC 2998 16.7 µM | UACC-257 > 76.6 µM | HCT-116 7.45 µM | OVCAR-5 5.06 µM
